These results are taken from patent US20070015735A1, “Water-dispersible carotenoids, including analogs and derivatives” (priority 2005, published 2007).

The format of the series is physicochemical. The conditions noted are these: 2 h.

Description: 30.13 mg of 106 was added to 1 mL USP-purified water. The sample was rotated for 2 h and then centrifuged for 5 min. […] A 125 μL aliquot of the solution was then diluted to 25 mL. The sample was analyzed by UV/Vis spectroscopy at 436 nm, and the absorbance was compared to a standard curve compiled from four standards of known concentration. […] Slight error may have been introduced by the small size of the original aliquot. […] The sample was rotated for 2 h and then centrifuged for 5 min. […] A 125 μL aliquot of the solution was then diluted to 25 mL. The sample was analyzed by UV/Vis spectroscopy at 411 nm, and the absorbance was compared to a standard curve compiled from four standards of known concentration. […] Slight error may have been introduced by the small size of the original aliquot.

In the case of “β,ε-Carotenyl 3,3′-disuccinate sodium salt [compound 106]”, the “Aqueous dispersibility (concentration of the original supernatant)” value is reported as 2.85 mg/mL.
